Measurements: paper PMC8279156, “Design, synthesis, HER2 inhibition and anticancer evaluation of new substituted 1,5-dihydro-4,1-benzoxazepines” (Journal of Enzyme Inhibition and Medicinal Chemistry, 2021)
Like-named read-outs stand apart in the source and are kept apart here.

What was measured:
[1] = tested on: MCF-7 human breast cancer cell line; details: previously described compounds, cited from earlier work
[2] = tested on: HCT-116 human colon cancer cell line; test: Proliferation assay (sulphorhodamine-B) in HCT-116; type: cell-based; details: 72 h of treatment, mean ± SD
Method: (§1) MCF-7, HCT-116, A-375 and SKBR cells were grown at 37 °C in an atmosphere containing 5% CO2, with Dulbecco’s modified Eagle Medium (DMEM) (Gibco, Grand Island, NY) supplemented with 10% heat-inactivated foetal bovine serum (FBS) (Gibco), 2% L-glutamine, 2.7% sodium bicarbonate, 1% Hepes buffer, 40 mg/L gentamicin and 500 mg/L ampicillin.
(§2) Compounds were dissolved in DMSO and stored at −20 °C. For each experiment, the stock solutions were further diluted in medium to obtain the desired concentrations. The final solvent concentration in cell culture was ≤ 0.1% v/v of DMSO, a concentration without any effect on cell replication. Parallel cultures of MCF-7, HCT-116, A375 and SKBR-3 cells in medium with DMSO were used as controls.
(§3) The effect of the compounds on cell viability was assessed using the sulphorhodamine-B colorimetric assay. Cells suspension (1 × 10^3 cells/well) were seeded onto 24-well plates and incubated for 24 h. The cells were then treated with different concentrations of drugs in their respective culture medium and maintained with the treatment for 3 days. Three days later, wells were aspirated and fresh medium and drug were added. Then cell cultures were maintained for 3 additional days. Thereafter, a Titertek Multiscan (Flow, Irvine, CA) at 492 nm was used. The linearity of the SRB assay was evaluated with a cell number for each cell stock before each cell growth experiment. The IC50 values were calculated from semi-logarithmic dose–response curves by linear interpolation. All the experiments were plated in triplicate wells and were carried out twice.
(§4) We then investigated the effects of the target compounds on cell proliferation on the human breast cancer cell lines MCF-7 and SKBR-3, the human colon carcinoma cell line HCT-116 and the human malignant melanoma cell line A-375. The antiproliferative activity of 7–9 was evaluated using sulphorhodamine-B colorimetric assay after 72 h of treatment (Table 3).
(§5) All experiments were conducted in duplicate and gave similar results. The data are mean ± SD of three independent determinations. MCF-7: human breast cancer cell line; SKBR3: human breast cancer cell line; HCT-116: human colon cancer cell line and A-375: human melanoma cancer cell line.

[3] = tested on: SKBR3 human breast cancer cell line; test: Proliferation assay (sulphorhodamine-B) in SKBR3; type: cell-based; details: SK-BR-3, 72 h of treatment, mean ± SD
Method: as §1, §2, §3, §4, §5

[4] = tested on: A-375 human melanoma cancer cell line; test: Proliferation assay (sulphorhodamine-B) in A-375; type: cell-based; details: 72 h of treatment, mean ± SD, read-out: IC50 A375
Method: as §1, §2, §3, §4, §5

[5] = tested on: MCF-7 human breast cancer cell line; test: Proliferation assay (sulphorhodamine-B) in MCF-7; type: cell-based; details: MCF7, 72 h of treatment, mean ± SD
Method: as §1, §2, §3, §4, §5

[6] = molecular target: isolated HER2 (Homo sapiens, UniProt P04626); test: HER2 inhibition assay, radiometric protein kinase assay (33PanQinase Activity Assay); type: biochemical; details: for ΔΔG Experiment (3 -> L): binding free energy difference relative to bozepinib (3), extracted from IC50 values; for IC50: isolated HER2, radiometric assay, 10 concentrations in singlicate
isolated HER2, sequence (P04626 23-1255): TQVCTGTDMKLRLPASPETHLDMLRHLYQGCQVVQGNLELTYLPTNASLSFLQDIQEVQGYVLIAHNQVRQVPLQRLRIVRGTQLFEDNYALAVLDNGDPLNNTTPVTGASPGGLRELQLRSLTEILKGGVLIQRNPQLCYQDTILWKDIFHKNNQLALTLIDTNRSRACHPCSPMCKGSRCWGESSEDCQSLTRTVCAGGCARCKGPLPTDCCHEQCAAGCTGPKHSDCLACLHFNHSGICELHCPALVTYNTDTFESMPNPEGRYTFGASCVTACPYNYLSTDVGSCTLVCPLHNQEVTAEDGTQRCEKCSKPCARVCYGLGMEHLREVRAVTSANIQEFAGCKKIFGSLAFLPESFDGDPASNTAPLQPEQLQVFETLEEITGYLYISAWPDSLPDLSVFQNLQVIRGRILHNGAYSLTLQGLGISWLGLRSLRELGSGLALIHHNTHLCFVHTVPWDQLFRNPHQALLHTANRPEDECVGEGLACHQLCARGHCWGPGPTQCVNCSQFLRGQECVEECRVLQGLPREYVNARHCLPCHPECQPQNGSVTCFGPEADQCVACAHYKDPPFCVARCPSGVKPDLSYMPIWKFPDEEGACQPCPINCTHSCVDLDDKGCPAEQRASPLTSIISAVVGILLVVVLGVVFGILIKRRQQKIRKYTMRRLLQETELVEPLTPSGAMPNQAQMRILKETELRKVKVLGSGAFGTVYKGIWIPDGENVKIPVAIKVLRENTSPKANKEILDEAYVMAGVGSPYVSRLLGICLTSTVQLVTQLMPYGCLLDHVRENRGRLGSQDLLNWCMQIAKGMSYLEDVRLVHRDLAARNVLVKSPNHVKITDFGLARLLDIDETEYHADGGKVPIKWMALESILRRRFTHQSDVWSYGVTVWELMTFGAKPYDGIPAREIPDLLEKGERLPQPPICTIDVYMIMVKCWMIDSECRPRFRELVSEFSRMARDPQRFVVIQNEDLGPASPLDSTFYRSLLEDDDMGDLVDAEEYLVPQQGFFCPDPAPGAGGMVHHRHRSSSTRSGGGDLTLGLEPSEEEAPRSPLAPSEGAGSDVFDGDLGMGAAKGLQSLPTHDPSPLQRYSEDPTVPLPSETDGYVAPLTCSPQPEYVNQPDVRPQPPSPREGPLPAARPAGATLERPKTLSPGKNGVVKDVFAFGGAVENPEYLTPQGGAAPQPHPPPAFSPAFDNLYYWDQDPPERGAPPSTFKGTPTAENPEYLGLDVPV
Method: The IC50 profile of the target compounds was determined using isolated HER2. IC50 values were measured by testing 10 concentrations (1 × 10 ^−4 M to 3 × 10 ^−9 M) of each compound in singlicate. A radiometric protein kinase assay (33PanQinase® Activity Assay) was used for measuring the kinase activity of HER2. The assay was performed in 96-well FlashPlatesTM from PerkinElmer (Boston, MA) in a 50 µl reaction volume. […] The reaction cocktails were incubated at 30 °C for 60 min. The reaction was halted with 50 µl of 2% (v/v) H3PO4, plates were aspirated and washed two times with 200 µl 0.9% (w/v) NaCl. Incorporation of ^33Pi was determined with a microplate scintillation counter (Microbeta, Wallac, Waltham, MA).
Human epidermal growth factor receptor 2 (HER2) is overexpressed in about 20% of all breast cancers. […] This prompted us to evaluated compounds 7–9 for their in vitro HER2 inhibitory effect. The IC50 profile of the target compounds was determined against isolated HER2 using a radiometric assay (Table 1).

[7] = tested on: MCF-7, SKBR3, HCT-116 and A-375 cell lines; test: Proliferation assay (sulphorhodamine-B), all tumour cell lines studied; type: cell-based; details: Homo sapiens, span over the four cell lines, read-out: IC50 against all the tumour cell lines studied
Method: as §1
Compounds were dissolved in DMSO and stored at −20 °C. For each experiment, the stock solutions were further diluted in medium to obtain the desired concentrations. The final solvent concentration in cell culture was ≤ 0.1% v/v of DMSO, a concentration without any effect on cell replication. […]
The effect of the compounds on cell viability was assessed using the sulphorhodamine-B colorimetric assay. […] The linearity of the SRB assay was evaluated with a cell number for each cell stock before each cell growth experiment. The IC50 values were calculated from semi-logarithmic dose–response curves by linear interpolation. […]
as §4, with “3). […]” for “3).”

[8] = tested on: Bax; test: Western blot, Bax expression in SKBR cells; type: cell-based, human; details: 5 µM, 4 h and 16 h, control and treated cells
Method: (§6) We performed a western blot to study differences in protein expression after treatment with 5 µM of 7c.
(§7) SKBR cells seeded on 6-well plates were treated during 4 h and 16, lysed using RIPA Lysis Buffer System (Santa Cruz Biotechnology, Santa Cruz, CA) and quantified by Pierce™ BCA Protein Assay Kit (Thermo Fisher Scientific, Waltham, MA). Western blot was realised using 4× Laemmli sample buffer (Bio-Rad, Hercules, CA) and separated by SDS-polyacrylamide gel electrophoresis (SDS–PAGE) and then, transferred to PVDF membranes. Blocking was realised with milk in PBS 5%.
(§8) The following primary antibodies were used to detect protein expression,: caspase 3: ref-9662S (Cell Signalling, Beverly, MA), caspase 1(14F468): sc-56036 (Santa Cruz Biotechnology, Santa Cruz, CA), cytochrome-c (A-8): sc-13156 (Santa Cruz Biotechnology, Santa Cruz, CA), Bax(B-9): sc-7480 (Santa Cruz Biotechnology, Santa Cruz, CA) and β-actin: sc-47778 (Santa Cruz Biotechnology, Santa Cruz, CA). […] Protein–antibody complexes were made visible using enhanced chemiluminescence (ECL, Bonus, Amersham, Little Chalfont, UK) with the program IMAGE READER LAS-4000 in a LAS-4000 imaging system. Quantity One program were used to analyse the intensity of the signal. […]

[9] = tested on: caspase 1; test: Western blot, caspase 1 expression in SKBR cells; type: cell-based, human; details: 5 µM, 16 h of exposition
Method: as §6, §7, §8

[10] = tested on: pro-caspase 3; test: Western blot, pro-caspase 3 expression in SKBR cells; type: cell-based, human; details: 5 µM
Method: as §6, §7, §8

[11] = tested on: HER2; test: Western blot, HER2 expression in SKBR cells; type: cell-based, human; details: 5 µM
Method: as §6, §7, §8

[12] = tested on: cytochrome c; test: Western blot, cytochrome c expression in SKBR cells; type: cell-based, human; details: 5 µM
Method: as §6, §7, §8

[13] = read-out: in vitro antiproliferative activity against MCF-7

Row | Structure (SMILES) | IC50 [2] | IC50 [3] | IC50 [4] | IC50 [5] | ΔΔG Experiment (3 -> L) [6] | IC50 [6] | melting point | other results
1 | O=[N+]([O-])c1ccccc1S(=O)(=O)N1CC(n2cnc3c(Cl)nc(Cl)nc32)OCc2ccccc21 (stereo not shown) [Compound 4] |  |  |  |  |  |  |  | IC50 ([1]; introduction, no reference number printed at the values, read-out: IC50 against the MCF-7 cell line): 0.383 µM
2 | O=[N+]([O-])c1ccc(S(=O)(=O)N2CC(n3cnc4c(Nc5ccccc5)nc(Cl)nc43)OCc3ccccc32)cc1 (stereo not shown) [Compound 9d, 2-Chloro-6-anilino-9-[1-(p-nitrobenzenesulfonyl)-1,2,3,5-tetrahydro-4,1-benzoxazepine-3-yl]-9H-purine] | > 100 µM | > 100 µM | > 100 µM | 13.8 ± 0.02 µM | 0.41 kcal/mol | 55.5 µM | 182 to 183 °C | 
3 | CN(C)c1nc(Cl)nc2c1ncn2C1CN(S(=O)(=O)c2ccc([N+](=O)[O-])cc2)c2ccccc2CO1 (stereo not shown) [Compound 9c, 2-Chloro-6-dimethylamino-9-[1-(p-nitrobenzenesulfonyl)-1,2,3,5-tetrahydro-4,1-benzoxazepine-3-yl]-9H-purine] | 87 ± 0.19 µM | 41.7 ± 0.79 µM | > 100 µM | 20.7 ± 0.02 µM | -0.44 kcal/mol | 14.4 µM | 203 to 205 °C | 
4 | Cc1ccc(S(=O)(=O)N2CC(n3cnc4c(Br)ncnc43)OCc3ccccc32)cc1 (stereo not shown) [Compound 7b, 6-Bromo-9-[1-(p-methylbenzenesulfonyl)-1,2,3,5-tetrahydro-4,1-benzoxazepine-3-yl]-9H-purine] | 3.1 ± 0.01 µM | 2.3 ± 0.04 µM | 3.08 ± 0.01 µM | 9.57 ± 0.03 µM | >0.76 kcal/mol | > 100 µM | 169 to 171 °C | IC50 [7]: 2.3 to 9.57 µM
5 | O=[N+]([O-])c1ccc(S(=O)(=O)N2CC(n3cnc4c(Oc5ccccc5)nc(Cl)nc43)OCc3ccccc32)cc1 (stereo not shown) [Compound 9b, 2-Chloro-6-phenoxy-9-[1-(p-nitrobenzenesulfonyl)-1,2,3,5-tetrahydro-4,1-benzoxazepine-3-yl]-9H-purine] | > 100 µM | > 100 µM | > 100 µM | 22.4 ± 0.03 µM |  | 13.3 µM | 210 to 212 °C | 
6 | O=[N+]([O-])c1ccccc1S(=O)(=O)N1CC(n2cnc3c(Nc4ccccc4)nc(Cl)nc32)OCc2ccccc21 (stereo not shown) [Compound 9g, 2-Chloro-6-anilino-9-[1-(o-nitrobenzenesulfonyl)-1,2,3,5-tetrahydro-4,1-benzoxazepine-3-yl]-9H-purine] | > 100 µM | > 100 µM | > 100 µM | 22.5 ± 0.02 µM |  | > 100 µM | 152 to 157 °C | 
7 | O=[N+]([O-])c1ccccc1S(=O)(=O)N1CC(n2cnc3ncnc(Sc4ccccc4)c32)OCc2ccccc21 (stereo not shown) [Compound 2] |  |  |  |  |  |  |  | IC50 [1, 13]: 2.59 µM
8 | O=[N+]([O-])c1ccccc1S(=O)(=O)N1CC(n2cnc3c(Sc4ccccc4)nc(Cl)nc32)OCc2ccccc21 (stereo not shown) [Compound 9e, 2-Chloro-6-phenylthio-9-[1-(o-nitrobenzenesulfonyl)-1,2,3,5-tetrahydro-4,1-benzoxazepine-3-yl]-9H-purine] | > 100 µM | > 100 µM | 92.2 ± 8.9 µM | 20.5 ± 0.06 µM |  | 11.5 µM | 212 to 214 °C | 
9 | O=[N+]([O-])c1ccc(S(=O)(=O)N2CC(n3cnc4c(Sc5ccccc5)nc(Cl)nc43)OCc3ccccc32)cc1 (stereo not shown) [Compound 9a, 2-Chloro-6-phenylthio-9-[1-(p-nitrobenzenesulfonyl)-1,2,3,5-tetrahydro-4,1-benzoxazepine-3-yl]-9H-purine] | 19.62 ± 0.01 µM | 71.69 ± 0.5 µM | 13.3 ± 0.07 µM | 26.46 ± 0.03 µM | -0.8 kcal/mol | 7.31 µM | 183 to 185 °C | 
10 | Cc1ccc(S(=O)(=O)N2CC(n3cnc4c(Cl)nc(Cl)nc43)OCc3ccccc32)cc1 (stereo not shown) [Compound 7c, 2,6-Dichloro-9-[1-(p-methylbenzenesulfonyl)-1,2,3,5-tetrahydro-4,1-benzoxazepine-3-yl]-9H-purine] | 0.86 ± 0.03 µM | 0.42 ± 0.01 µM | 0.78 ± 0.05 µM | 0.86 ± 0.06 µM | >0.76 kcal/mol | > 100 µM | 193 to 195 °C | Bax expression (western blot) [8]: none expression of Bax; caspase 1 expression, normalised value relative to control (value 1) [9]: 3.1; pro-caspase 3 expression, normalised value relative to control (value 1) ([10]; 4 h after treatment): 1.18; pro-caspase 3 expression, normalised value relative to control (value 1) ([10]; 16 h after treatment): 0.43; HER2 expression, normalised with β-actin and relative to control (value 1) ([11]; 4 h of treatment): 0.48; HER2 expression, normalised with β-actin and relative to control (value 1) ([11]; 16 h of treatment): 0.07; cytochrome c expression, normalised value relative to control (value 1) ([12]; 4 h of treatment): 0.93; cytochrome c expression, normalised value relative to control (value 1) ([12]; 16 h of treatment): 0.70
11 | O=[N+]([O-])c1ccccc1S(=O)(=O)N1CC(n2cnc3c(Oc4ccccc4)nc(Cl)nc32)OCc2ccccc21 (stereo not shown) [Compound 9f, 2-Chloro-6-phenoxy-9-[1-(o-nitrobenzenesulfonyl)-1,2,3,5-tetrahydro-4,1-benzoxazepine-3-yl]-9H-purine] | > 100 µM | > 100 µM | > 100 µM | 18 ± 0.02 µM |  | 24.6 µM | 142 to 144 °C | 
12 | Cc1ccc(S(=O)(=O)N2CC(n3cnc4c(Cl)ncnc43)OCc3ccccc32)cc1 (stereo not shown) [Compound 7a, 6-Chloro-9-[1-(p-methylbenzenesulfonyl)-1,2,3,5-tetrahydro-4,1-benzoxazepine-3-yl]-9H-purine] | 1.03 ± 0.05 µM | 1.08 ± 0.02 µM | 0.78 ± 0.03 µM | 0.12 µM | >0.76 kcal/mol | > 100 µM | 178 to 180 °C | IC50 [7]: ≤ 1 µM
13 | O=[N+]([O-])c1ccc(S(=O)(=O)N2CC(n3cnc4ncnc(Sc5ccccc5)c43)OCc3ccccc32)cc1 (stereo not shown) [Compound 1] |  |  |  |  |  |  |  | IC50 [1, 13]: 0.86 µM
